# Experimental data: patent US9212204B2, “Treatment of rett syndrome using glycyl-L-2-methylprolyl-L-glutamic acid” (priority 2011, dated 2015)
# Non-standard residues stand in square brackets, D forms with d. Residues, ends and D or L forms follow the SMILES beside them. αMeP = C[C@@]1(C(=O)O)CCCN1
# What was measured:
# [1] = tested on: ChAT-positive neurons in the striatum of 18-month old rats; test: ChAT immunohistochemistry in striatum of aging rats; format: in vivo, rat; conditions: single s.c. dose 0.012-12 mg/kg, 3 days after treatment
# Description: In this experiment, we tested the effects of G-2-MePE on the number of ChAT-positive neurons in brains of 18-month old rats.
# Eighteen-month old male rats received one of five treatments. A control group was treated with vehicle (saline alone (n=4) and four groups were treated with a single dose of G-2-MePE. Doses of 0.012 (n=4), 0.12 (n=5), 1.2 (ln=5) and 12 mg/kg (n=3), respectively, were given sub-cutaneously. Rats were sacrificed with an overdose of pentobarbital 3 days after drug treatment. Brains were perfused with normal saline and 4% paraformaldehyde and fixed in perfusion fixative overnight. Brains were stored in 25% sucrose in 0.1M PBS (pH7.4) until the tissue sank. Frozen coronal sections of striatum were cut with a microtome and stored in 0.1% sodium azide in 0.1M PBS at 4° C. Immunoreactivity for choline acetyltransferase (ChAT) was established by staining using a free floating section method. Briefly, antibodies were diluted in 1% goat serum. The sections were incubated in 0.2% triton in 0.1M PBS/Triton™ at 4° C. overnight before Immunohistochemical staining. The sections were pre-treated with 1% H2O2 in 50% methanol for 20 min. […]
# The size of the striatal region used for the count was measured using an image analyser. […]
# Data were analysed using a paired t-test and presented as mean+/−SEM.
# [2] = tested on: layer 5 cortical neurons of MeCP2-/y mice; test: Whole-cell recordings of spontaneous EPSCs in acute brain slices; format: in vivo, mouse; conditions: 20 mg/kg i.p. daily P15 to P28-P32; vs MeCP2-/y mice treated with vehicle
# Description: For the survival measurements, the nocturnal activity analysis and the immunoblot analysis, G-2-MePE (synthesised Albany Molecular Research Inc. (Albany, N.Y.) and supplied by Neuren Pharmaceuticals Limited) is administered daily via intra-peritoneal injections (20 mg/kg, vehicle=saline, 0.01% BSA). The treatment starts at PI 5 and is maintained throughout the course of the experiments. For intracellular physiology experiments, the mice are injected daily with G-2-MePE (20 mg/kg body weight, vehicle=saline, 0.01% BSA) for 2 weeks, from P15 to P28-P32 when they are used for acute slice preparation. For optical imaging experiments, mice are injected with G-2-MePE (20 mg/kg body weight, vehicle=saline, 0.01% BSA) daily from the day of the lid suture to the day of imaging. […]
# Borosilicate pipettes (3-5 MΩ, WP1) are pulled using a Sutter P-80 puller (Sutter Instruments). Cells are visualized with an Achroplan 40× water-immersion lens with infrared-DIC optics (Zeiss) and detected with an infrared camera (Hamamatsu) projecting to a video monitor. […] Then in current clamp ˜10 pulses (500 ms, 40-140 pA at 10 pA increments), are applied to quantify evoked firing rates and cellular excitability. […] Analysis is performed using a custom software package written in Matlab, with all events detected according to automated thresholds and blindly verified for each event individually by the experimenter. […]
smiles,measurement,setting,value
"C[C@@]1(C(=O)N[C@@H](CCC(=O)O)C(=O)O)CCCN1C(=O)CN [Example G-2-MePE, Glycyl-L-2-methylprolyl-L-glutamic acid] (H-Gly-[αMeP]-Glu-OH)",number of ChAT-immunopositive neurons,[1],increased
same,spontaneous EPSC amplitude,[2],significantly larger
